# From US6465447B1, “Substance having steroid-like structure, process for the production thereof and antitumor agents containing the same” (Hisamitsu Pharmaceuticals Co., Inc., priority 1998, dated 2002)
# Experiments:
# HeLa cells [1] = test: DNA cleavage examined against HeLa cells (chromatin aggregation, agarose gel electrophoresis); format: cell-based, human; details: conclusion from FIGS. 7-9
# Description: HeLa cells were prepared, adjusted to a cell density of 1×10^6 cells/ml in a φ10 cm culture dish and grown, into which 200 μl of the active fraction solution was dropped. Cells were harvested each 50 μl after 24, 48, and 72 hrs, and incubated in 400 μl of culture solution (containing Tris-EDTA, SDS and Proteinase K) in a 5% CO2 atmosphere at 37° C. overnight. NaCl was added to the cells and decomposed proteins were centrifuged; and the supernatant was precipitated in ethanol.
# The precipitate was suspended in Tris-EDTA buffer containing RnaseA. After 2 hrs, it was loaded onto agarose gel. After staining with ethidium bromide, it was electrophoresed and visualized under UV irradiation.
# HeLa cells [2] = test: Tumor cell proliferation inhibitory activity, Alarmer Blue staining, HeLa cells; format: cell-based, human; details: conclusion from FIGS. 4-6 (Vero, HeLa, fibroblasts)
# Description: Here, Vero was […] derived from the kidney of a grivet, and HeLa was a tumor cell line derived from human cervix.
# These cells were grown in FCS-MRM medium. The respective cells were trypsinized and washed with a FCS-free RPMI culture medium three times. The cell density was adjusted to 50,000 cells/ml prior to the test. Each 200 μl of cell suspension was dropped into a 96-well plain-bottom plate.
# After one day, the culture medium was aspirated; and 200 μl of an active component solution was dropped into test wells, and 200 μl of DMSO dropped into control wells. The plate was incubated in a 5% CO2 atmosphere at 37° C. for 3 days. Ten μl of Alarmer Blue (staining agent) was added to each well, and incubation continued for additional 3 hrs. The tumor cell proliferation inhibitory activity was determined spectrophotometrically (570 and 600 nm) according to the following equation:
# Eq. Proliferation inhibitory activity=100%−[(absorbance of test well)/(absorbance of control well)×100%]
structure (smiles),measurement,setting,value
CC(=O)OC1CC2(C)C(C(C)/C=C/C(C)C(C)C)CCC2(C)C2CC(O)C3(O)CC(O)CC(=O)C3(C)C12 (centres unmarked) [compound (II)],induction of apoptosis in the tumor cells,HeLa cells [1],induces apotosis
same,proliferation inhibitory activity specific to tumor cells (overall conclusion),HeLa cells [2],remarkable proliferation inhibitory activity specific to tumor cells
